In the test the test system is Male Sprague-Dawley rats. In words: EEG/EMG sleep recording in rats: time in NREMS for 12 hours after PO dosing. It is filed as in vivo, rat. The settings on record: for Total Minutes (Mean ± SEM) NREMS for 12-Hour Postinjection: rats, N = 8/Treatment, just prior to onset of light phase. Here is the method: Male Sprague-Dawley rats weighing 250 to 360 g were used for the experiment. The rats were kept on a 12:12-hr light/dark cycle (lights on at 0900) at 23±1° C. ambient temperature. They had free access water and food during the experiment. Stainless steel jewelry screws for EEG recording were placed over the frontal and parietal cortices. An EMG electrode was implanted in the dorsal neck muscles.
Recording and analyses. After the recovery period (at least 1 week), rats were moved to sleep recording chambers. The rats were allowed relatively unrestricted movement inside the recording cages. A flexible tether connected the electrodes led to an electronic swivel. The leads from the swivel were routed to Grass Model No. 7D polygraphs in an adjacent room for recording EEG and EMG activity. The vigilance states of wakefulness, nonrapid-eye-movement sleep (NREMS), and rapid-eye-movement sleep (REMS) were determined offline in 10 second epochs. The amount of time spent in each vigilance state was calculated every hour and totaled for the 12-hour period post injection. Drug or vehicle were administered PO just prior to the onset of the light phase of the rat's light/dark cycle. Each rat received a vehicle and one drug dose. Results

Consider `C[C@H]1CC(CN)(CC(=O)O)C[C@@H]1C` [Compound 1], for which the “Total Minutes (Mean ± SEM) NREMS for 12-Hour Postinjection” value (shortened to “Total Minutes (Mean ± SEM) NREMS”) (3 mg/kg PO) was 401 ± 8 min, the “Total Minutes (Mean ± SEM) NREMS” value (10 mg/kg PO) was found to be 409 ± 12 min and the “Total Minutes (Mean ± SEM) NREMS” value (30 mg/kg PO) stood at 424 ± 6 min. In addition, under “rats, 3, 10, and 30 mg/kg PO”, the “Effect on NREMS in rats during the 12-hour period following injection” value was “significantly increased NREMS”.

For `CCC[C@@H](C)C[C@H](CN)CC(=O)O` [Compound 2, (3S, 5R)-3-Aminomethyl-5-methyl-octanoic acid], the “Total Minutes (Mean ± SEM) NREMS” value was determined as 432 ± 8 min (1 mg/kg PO), 451 ± 9 min (3 mg/kg PO) and 481 ± 6 min (10 mg/kg PO). Moreover, the “Effect on NREMS in rats during the 12-hour period following injection” value (rats, 1, 3, and 20 mg/kg PO) is “significantly increased NREMS”.

These data come from patent US7141606B2, “Gabapentin analogues for sleep disorders” (Warner-Lambert Company, priority 2000, dated 2006).
